Laboratory results reported in US20220226299A1 (NIPPON CHEMIPHAR CO., LTD., priority 2019, published 2022).
Counter-ions that a name gives are not always drawn.

Target: T1, human Cav3.2 channels (Homo sapiens, UniProt O95180)
T1 construct: human Cav3.2 channel ORF (Open Reading Frame) gene; expressed in transfected cells; host or cells: HEK293 cells (ATCC No. CRL-1573), pcDNA3.1(+) plasmid
Experiment: T-type calcium blocking action: intracellular calcium (Fluo-4 AM fluorescence) in HEK293 cells steadily expressing human Cav3.2 channels
Type: cell-based
Settings: HEK293 cells expressing human Cav3.2; KCl-stimulated calcium influx, Fluo-4 fluorescence; Tables 1 to 3
Method in brief: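 Fluo-4 AM-loaded stable HEK293 cells were preincubated 15 min at RT with compound (0.1% DMSO final) in choline-based buffer (pH 7.3). Gramicidin was added, then KCl-induced calcium influx was read at 485/510 nm for 10 s. Percent block came from peak rise over baseline, and IC50 from log-concentration plots.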

T1 sequence (O95180 whole entry): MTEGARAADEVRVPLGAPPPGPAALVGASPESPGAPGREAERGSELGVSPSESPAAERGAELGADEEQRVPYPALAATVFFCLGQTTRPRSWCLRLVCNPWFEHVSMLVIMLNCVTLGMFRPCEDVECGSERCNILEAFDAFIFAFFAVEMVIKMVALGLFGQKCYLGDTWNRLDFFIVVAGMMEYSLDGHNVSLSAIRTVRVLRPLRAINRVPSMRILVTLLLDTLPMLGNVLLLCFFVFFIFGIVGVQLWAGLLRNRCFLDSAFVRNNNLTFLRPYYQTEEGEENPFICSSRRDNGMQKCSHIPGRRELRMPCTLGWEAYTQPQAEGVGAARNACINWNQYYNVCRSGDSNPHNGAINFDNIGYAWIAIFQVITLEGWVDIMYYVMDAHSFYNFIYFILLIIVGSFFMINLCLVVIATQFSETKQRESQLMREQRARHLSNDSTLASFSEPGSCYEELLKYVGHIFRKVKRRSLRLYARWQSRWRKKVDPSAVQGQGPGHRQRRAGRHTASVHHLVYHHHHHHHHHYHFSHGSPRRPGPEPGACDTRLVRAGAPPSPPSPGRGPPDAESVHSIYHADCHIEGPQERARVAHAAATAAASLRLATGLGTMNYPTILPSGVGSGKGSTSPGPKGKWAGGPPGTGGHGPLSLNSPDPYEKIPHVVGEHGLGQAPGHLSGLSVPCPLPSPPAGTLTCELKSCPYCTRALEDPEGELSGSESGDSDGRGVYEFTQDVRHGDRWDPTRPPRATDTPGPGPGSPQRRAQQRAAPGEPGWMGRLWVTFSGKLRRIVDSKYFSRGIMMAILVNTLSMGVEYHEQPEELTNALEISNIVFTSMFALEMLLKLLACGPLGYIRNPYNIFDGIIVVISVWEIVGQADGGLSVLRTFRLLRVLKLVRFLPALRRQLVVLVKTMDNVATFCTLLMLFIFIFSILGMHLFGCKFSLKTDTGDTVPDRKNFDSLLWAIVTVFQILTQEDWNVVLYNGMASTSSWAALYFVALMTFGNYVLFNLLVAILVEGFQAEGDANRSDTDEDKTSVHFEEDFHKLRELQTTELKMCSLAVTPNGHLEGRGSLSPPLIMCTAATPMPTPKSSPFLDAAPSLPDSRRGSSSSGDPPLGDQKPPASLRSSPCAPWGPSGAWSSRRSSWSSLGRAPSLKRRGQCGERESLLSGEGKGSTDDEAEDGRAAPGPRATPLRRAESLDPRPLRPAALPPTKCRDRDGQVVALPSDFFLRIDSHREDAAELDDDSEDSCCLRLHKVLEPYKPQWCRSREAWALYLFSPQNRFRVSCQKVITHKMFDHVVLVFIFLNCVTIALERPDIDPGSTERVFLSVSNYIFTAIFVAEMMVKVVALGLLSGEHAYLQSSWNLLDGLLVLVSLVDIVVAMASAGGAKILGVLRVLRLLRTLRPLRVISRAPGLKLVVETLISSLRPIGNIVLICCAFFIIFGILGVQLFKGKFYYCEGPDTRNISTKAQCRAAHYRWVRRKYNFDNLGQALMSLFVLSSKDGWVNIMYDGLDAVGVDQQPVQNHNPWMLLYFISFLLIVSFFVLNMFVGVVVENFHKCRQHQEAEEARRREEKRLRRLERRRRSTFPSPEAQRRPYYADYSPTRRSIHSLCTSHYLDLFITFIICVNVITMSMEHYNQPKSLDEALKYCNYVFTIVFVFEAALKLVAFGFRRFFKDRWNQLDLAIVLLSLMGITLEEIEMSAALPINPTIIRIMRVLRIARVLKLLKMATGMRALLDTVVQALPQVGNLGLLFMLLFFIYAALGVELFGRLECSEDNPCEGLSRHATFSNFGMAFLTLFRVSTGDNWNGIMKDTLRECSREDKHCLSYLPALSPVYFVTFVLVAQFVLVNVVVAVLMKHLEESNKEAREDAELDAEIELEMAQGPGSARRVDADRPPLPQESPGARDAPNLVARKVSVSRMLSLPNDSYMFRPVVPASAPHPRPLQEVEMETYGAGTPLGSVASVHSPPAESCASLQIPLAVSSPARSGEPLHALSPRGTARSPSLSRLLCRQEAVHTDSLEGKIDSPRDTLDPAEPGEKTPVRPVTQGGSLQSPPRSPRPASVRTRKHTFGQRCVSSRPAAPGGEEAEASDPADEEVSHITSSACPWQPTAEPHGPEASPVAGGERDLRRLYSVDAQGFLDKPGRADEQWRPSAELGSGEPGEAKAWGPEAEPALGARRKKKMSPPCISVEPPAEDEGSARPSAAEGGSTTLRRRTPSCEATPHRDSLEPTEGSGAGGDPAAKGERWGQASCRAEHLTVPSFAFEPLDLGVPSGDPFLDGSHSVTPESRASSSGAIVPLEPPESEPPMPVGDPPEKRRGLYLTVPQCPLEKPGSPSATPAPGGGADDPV

| SMILES | IC50 |
| --- | --- |
| O=C(Cc1ccc(C2CC2)cc1)N[C@@H]1CCN(c2cncc(OCC(F)(F)F)c2)C1 [Example 126, (R)-2-(4-cyclopropylphenyl)-N-(1-(5-(2,2,2-trifluoroethoxy)pyridin-3-yl)pyrrolidin-3-yl)acetamide] | 830 nM |
| O=C(Cc1ccc(C2CC2)cc1)N[C@@H]1CCN(c2cc(OCC(F)(F)F)ccn2)C1 [Example 127, (R)-2-(4-cyclopropylphenyl)-N-(1-(4-(2,2,2-trifluoroethoxy)pyridin-2-yl)pyrrolidin-3-yl)acetamide] | 1100 nM |
| O=C(Cc1ccc(C2CC2)cc1)N[C@@H]1CCCN(c2cncc(C(F)(F)F)c2)C1 [Example 129, (R)-2-(4-cyclopropylphenyl)-N-(1-(5-(trifluoromethyl)pyridin-3-yl)piperidin-3-yl)acetamide] | 550 nM |
| O=C(Cc1ccc(C2CC2)cc1)N[C@@H]1CCN(c2cc(C(F)(F)F)c[n+]([O-])c2)C1 [Example 134A, (R)-3-(3-(2-(4-cyclopropylphenyl)acetamido)pyrrolidin-1-yl)-5-(trifluoromethyl)pyridine 1-oxide] | 930 nM |
| O=C(Cc1ccc(C2CC2)cc1)N[C@@H]1CC[N+]([O-])(c2cncc(C(F)(F)F)c2)C1 (stereo partly drawn) [Example 134B, (3R)-3-(2-(4-cyclopropylphenyl)acetamido)-1-(5-(trifluoromethyl)pyridin-3-yl)pyrrolidine 1-oxide] | 1000 nM |
| O=C(Cc1ccc(C2CC2)cc1)N[C@@H]1CCN(c2cc(F)cc(C(F)(F)F)c2)C1 [Example 136, (R)-2-(4-cyclopropylphenyl)-N-(1-(3-fluoro-5-(trifluoromethyl)phenyl)pyrrolidin-3-yl)acetamide] | 1500 nM |
| CN(C)C(C(=O)N[C@@H]1CCN(c2cncc(C(F)(F)F)c2)C1)c1ccc(C2CC2)cc1 (stereo partly drawn) [Example 138, 2-(4-cyclopropylphenyl)-2-(dimethylamino)-N—((R)-1-(5-(trifluoromethyl)pyridin-3-yl)pyrrolidin-3-yl)acetamide hydrochloride] | 690 nM |
| O=C(Cc1ccc(C(F)(F)F)cc1C(F)(F)F)N[C@@H]1CCN(c2cncc(C(F)(F)F)c2)C1 [Example 140, (R)-2-(2,4-bis(trifluoromethyl)phenyl)-N-(1-(5-(trifluoromethyl)pyridin-3-yl)pyrrolidin-3-yl)acetamide] | 1100 nM |
| O=C(Cc1ccc(N2C3CCC2COC3)cc1)N[C@@H]1CCN(c2cncc(C(F)(F)F)c2)C1 [Example 149, 2-(4-(3-Oxa-8-azabicyclo[3.2.1]octan-8-yl)phenyl)-N—((R)-1-(5-(trifluoromethyl)pyridin-3-yl)pyrrolidin-3-yl) acetamide] | 69 nM |
| O=C(Cc1ccc(N2C3CCC2COC3)cc1)N[C@@H]1CCN(c2ccc(C(F)(F)F)nc2)C1 [Example 150, 2-(4-(3-Oxa-8-azabicyclo[3.2.1]octan-8-yl)phenyl)-N—((R)-1-(6-(trifluoromethyl)pyridin-3-yl)pyrrolidin-3-yl)acetamide] | 400 nM |
| O=C(Cc1ccc2ocnc2c1)N[C@@H]1CCN(c2ccc(C(F)(F)F)nc2)C1 [Example 151, (R)-2-(benzo[d]oxazol-5-yl)-N-(1-(6-(trifluoromethyl)pyridin-3-yl)pyrrolidin-3-yl)acetamide] | 2700 nM |
| O=C(Cc1ccc2ocnc2c1)N[C@@H]1CCN(c2cncc(C(F)(F)F)c2)C1 [Example 152, (R)-2-(benzo[d]oxazol-5-yl)-N-(1-(5-(trifluoromethyl)pyridin-3-yl)pyrrolidin-3-yl)acetamide] | 1300 nM |
| Cc1nc2cc(CC(=O)N[C@@H]3CCN(c4cncc(C(F)(F)F)c4)C3)ccc2o1 [Example 153, (R)-2-(2-methylbenzo[d]oxazol-5-yl)-N-(1-(5-(trifluoromethyl)pyridin-3-yl)pyrrolidin-3-yl)acetamide] | 570 nM |
| Cc1nc2cc(CC(=O)N[C@@H]3CCN(c4ccc(C(F)(F)F)nc4)C3)ccc2o1 [Example 154, (R)-2-(2-methylbenzo[d]oxazol-5-yl)-N-(1-(6-(trifluoromethyl)pyridin-3-yl)pyrrolidin-3-yl)acetamide] | 1000 nM |
| O=C(Cc1ccc(N2C[C@@H]3CC[C@H]2CO3)cc1)N[C@@H]1CCN(c2ccc(C(F)(F)F)nc2)C1 [Example 156, 2-(4-((1S,4S)-2-oxa-5-azabicyclo[2.2.2]octan-5-yl)phenyl)-N—((R)-1-(6-(trifluoromethyl)pyridin-3-yl)pyrrolidin-3-yl)acetamide] | 1300 nM |
| O=C(Cc1ccc2ncsc2c1)N[C@@H]1CCN(c2cncc(C(F)(F)F)c2)C1 [Example 157, (R)-2-(benzo[d]thiazol-6-yl)-N-(1-(5-(trifluoromethyl)pyridin-3-yl)pyrrolidin-3-yl)acetamide] | 280 nM |
| O=C(Cc1ccc2ncsc2c1)N[C@@H]1CCN(c2ccc(C(F)(F)F)nc2)C1 [Example 158, (R)-2-(benzo[d]thiazol-6-yl)-N-(1-(6-(trifluoromethyl)pyridin-3-yl)pyrrolidin-3-yl)acetamide] | 1100 nM |
| O=C(Cc1ccc2[nH]ncc2c1)N[C@@H]1CCN(c2cncc(C(F)(F)F)c2)C1 [Example 159, (R)-2-(1H-indazol-5-yl)-N-(1-(5-(trifluoromethyl)pyridin-3-yl)pyrrolidin-3-yl)acetamide] | 510 nM |
| O=C(Cc1ccc2[nH]ncc2c1)N[C@@H]1CCN(c2ccc(C(F)(F)F)nc2)C1 [Example 160, (R)-2-(1H-indazol-5-yl)-N-(1-(6-(trifluoromethyl)pyridin-3-yl)pyrrolidin-3-yl)acetamide] | 6400 nM |
| O=C(Cc1ccc(C2CC2)cc1)NC1(C(F)(F)F)CCN(c2cncc(C(F)(F)F)c2)C1 (stereo not shown) [Example 161, 2-(4-cyclopropylphenyl)-N-(3-(trifluoromethyl)-1-(5-(trifluoromethyl)pyridin-3-yl)pyrrolidin-3-yl)acetamide] | 260 nM |

Now from value to molecule:

| IC50 | SMILES |
| --- | --- |
| 62 nM | O=C(Cc1ccc2cc[nH]c2c1)N[C@@H]1CCN(c2cncc(C(F)(F)F)c2)C1 [Example 124, (R)-2-(1H-indol-6-yl)-N-(1-(5-(trifluoromethyl)pyridin-3-yl)pyrrolidin-3-yl)acetamide] |
| 200 nM | CC(C)(O)c1ccc(CC(=O)N[C@@H]2CCN(c3cncc(C(F)(F)F)c3)C2)cc1 [Example 131, (R)-2-(4-(2-hydroxypropan-2-yl)phenyl)-N-(1-(5-(trifluoromethyl)pyridin-3-yl)pyrrolidin-3-yl)acetamide] |
| 190 nM | Cc1nccnc1-c1ccc(CC(=O)N[C@@H]2CCN(c3cncc(C(F)(F)F)c3)C2)cc1 [Example 132, (R)-2-(4-(3-methylpyrazin-2-yl)phenyl)-N-(1-(5-(trifluoromethyl)pyridin-3-yl)pyrrolidin-3-yl)acetamide] |
| 55 nM | Cc1ncoc1-c1ccc(CC(=O)N[C@@H]2CCN(c3cncc(C(F)(F)F)c3)C2)cc1 [Example 133, (R)-2-(4-(4-methyloxazol-5-yl)phenyl)-N-(1-(5-(trifluoromethyl)pyridin-3-yl)pyrrolidin-3-yl)acetamide] |
| 230 nM | CC(C)(C(=O)N[C@@H]1CCN(c2cncc(C(F)(F)F)c2)C1)c1ccc(C2CC2)cc1 [Example 135, (R)-2-(4-cyclopropylphenyl)-2-methyl-N-(1-(5-(trifluoromethyl)pyridin-3-yl)pyrrolidin-3-yl)propanamide] |
| 5.4 nM | Cn1ccc2cc(CC(=O)N[C@@H]3CCN(c4cncc(C(F)(F)F)c4)C3)ccc21 [Example 139, (R)-2-(1-methyl-1H-indol-5-yl)-N-(1-(5-(trifluoromethyl)pyridin-3-yl)pyrrolidin-3-yl)acetamide] |
| 180 nM | O=C(Cc1ccc(C(F)(F)F)cc1F)N[C@@H]1CCN(c2cncc(C(F)(F)F)c2)C1 [Example 141, (R)-2-(2-fluoro-4-(trifluoromethyl)phenyl)-N-(1-(5-(trifluoromethyl)pyridin-3-yl)pyrrolidin-3-yl)acetamide] |
| 9.4 nM | Cn1ncc2cc(CC(=O)N[C@@H]3CCN(c4cncc(C(F)(F)F)c4)C3)ccc21 [Example 142, (R)-2-(1-methyl-1H-indazol-5-yl)-N-(1-(5-(trifluoromethyl)pyridin-3-yl)pyrrolidin-3-yl)acetamide] |
| 120 nM | Cn1ncc2cc(CC(=O)N[C@@H]3CCN(c4nc(C(F)(F)F)cs4)C3)ccc21 [Example 143, (R)-2-(1-methyl-1H-indazol-5-yl)-N-(1-(4-(trifluoromethyl)thiazol-2-yl)pyrrolidin-3-yl)acetamide] |
| 130 nM | CC1(C)CN(c2ccc(CC(=O)N[C@@H]3CCN(c4cncc(C(F)(F)F)c4)C3)cc2)CCO1 [Example 145, (R)-2-(4-(2,2-dimethylmorpholino)phenyl)-N-(1-(5-(trifluoromethyl)pyridin-3-yl)pyrrolidin-3-yl)acetamide] |
| 23 nM | O=C(Cc1ccc(-n2cccn2)cc1)N[C@@H]1CCN(c2cncc(C(F)(F)F)c2)C1 [Example 146, (R)-2-(4-(1H-pyrazol-1-yl)phenyl)-N-(1-(5-(trifluoromethyl)pyridin-3-yl)pyrrolidin-3-yl)acetamide] |
| 170 nM | C[C@@]1(NC(=O)Cc2ccc(N3CCOCC3)cc2)CCN(c2cncc(C(F)(F)F)c2)C1 [Example 147, (R)—N-(3-methyl-1-(5-(trifluoromethyl)pyridin-3-yl)pyrrolidin-3-yl)-2-(4-morpholinophenyl)acetamide] |
| 200 nM | C[C@@]1(NC(=O)Cc2ccc(C3CC3)cc2)CCN(c2cncc(C(F)(F)F)c2)C1 [Example 148, (R)-2-(4-cyclopropylphenyl)-N-(3-methyl-1-(5-(trifluoromethyl)pyridin-3-yl)pyrrolidin-3-yl)acetamide] |
| 75 nM | O=C(Cc1ccc(N2C[C@@H]3CC[C@H]2CO3)cc1)N[C@@H]1CCN(c2cncc(C(F)(F)F)c2)C1 [Example 155, 2-(4-((1S,4S)-2-oxa-5-azabicyclo[2.2.2]octan-5-yl)phenyl)-N—((R)-1-(5-(trifluoromethyl)pyridin-3-yl)pyrrolidin-3-yl)acetamide] |
